# Measured values published in patent publication US20190021380A1 (priority 2014, published 2019).
# Counter-ions that a name gives are not always drawn. Like-named read-outs stand apart in the source and are kept apart here.
# How the values were obtained:
# T1R1/T1R3 receptor = T1R1/T1R3 receptor (Felis catus, UniProt E3UMS2); format: cell-based; settings: for Thres +IMP (0.2 mM): threshold in the presence of 0.2 mM IMP; for EC50 +buffer (alone): compound alone in buffer
# From the text: (§1) HEK293 cells that stably express T1R3 and inducibly express T1R1 were exposed to transmembrane compounds alone or in combination with one or more amino acids and/or one or more nucleotides to activate the umami receptor. Activation of the T1R1/T1R3 receptor was detected by a change in intracellular calcium levels using a calcium sensitive fluorescent dye. Cells that express T1R3 but not T1R1 were used as a control. A FLIPR® Tetra or a FlexStation® 3 was used for data capture.
# In each experiment, serial dilutions of up to 10 mM of the transmembrane compound were added to the T1R1/T1R3-expressing cells.
# cat T1R1/T1R3 receptor = cat T1R1/T1R3 receptor (Felis catus, UniProt E3UMS2); assay: cell-based; settings: for Max resp % of IMP / Max. resp. % of IMP: hek293 cells; for function as activators of T1R1/T1R3: in the presence of alanine, in words
# From the text: as §1, with “nucleotide derivatives” for “transmembrane compounds”, “dye and/or a luminescent reporter system.” for “dye.”
# [1] = in the presence of 20 mM alanine, read-out: EC50-with Ala
# [2] = in the presence of 0.2 mM IMP, CNBD = Could not be determined
compound,measurement,setting,value
CC(C)CC(NC(=O)c1ccccc1)C(N)=O (racemic),Thres +IMP (0.2 mM),T1R1/T1R3 receptor; CNBD = Could not be determined,0.1 mM
"O=C(O)C1CCCCC1C(=O)Nc1cc(Cl)cc(Cl)c1 (stereo not shown) [2-((3,5-dichlorophenyl)carbamoyl)cyclohexanecarboxylic acid]",Thres +IMP (0.2 mM),T1R1/T1R3 receptor; CNBD = Could not be determined,0.03 mM
Nc1ccccc1C(=O)NCCc1ccccc1 [2-amino-N-phenethylbenzamide],Thres +IMP (0.2 mM),T1R1/T1R3 receptor; CNBD = Could not be determined,0.01 mM
CNc1ccccc1C(=O)O[C@H]1C[C@H](n2cnc3c(=O)[nH]c(N)nc32)O[C@@H]1COP(=O)(O)O [2′-Deoxy-3′-O-(N′-methylanthraniloyl) guanosine-5′-O-monophosphate],Activity,cat T1R1/T1R3 receptor,active
same,Thres,cat T1R1/T1R3 receptor,0.0025 mM
same,Max resp % of IMP,cat T1R1/T1R3 receptor,23.7 % of IMP
same,Max. resp. % of IMP,cat T1R1/T1R3 receptor,23.7 % of IMP
same,function as activators of T1R1/T1R3,cat T1R1/T1R3 receptor,activators of T1R1/T1R3
CNc1ccccc1C(=O)O[C@H]1C[C@H](n2cnc3c(N)ncnc32)O[C@@H]1COP(=O)(O)O [2′-Deoxy-3′-O-(N′-methylanthraniloyl)adenosine-5′-O-monophosphate],Thres,cat T1R1/T1R3 receptor,0.0025 mM
same,EC50,cat T1R1/T1R3 receptor; [1],0.01 mM
Nc1ncnc2c1ncn2[C@H]1C[C@H](O)[C@@H](COP(=O)(O)O)O1 [2′-Deoxyadenosine 5′-monophosphate],Thres,cat T1R1/T1R3 receptor,0.035 mM
"Nc1ncnc2c1ncn2[C@H]1CC(OP(=O)(O)O)[C@@H](COP(=O)(O)O)O1 (stereo partly shown) [2′-Deoxyadenosine-3′,5′-O-bisphosphate]",Thres,cat T1R1/T1R3 receptor,0.005 mM
Nc1ncnc2c1ncn2C1CC(O)C(COP(O)(O)=S)O1 (stereo not shown) [2′-Deoxyadenosine-5′-O-monophosphorothioate],Thres,cat T1R1/T1R3 receptor,0.015 mM
"Nc1nc2c(ncn2[C@H]2C[C@H](OP(=O)(O)O)[C@@H](COP(=O)(O)O)O2)c(=O)[nH]1 [2′-Deoxyguanosine-3′,5′-O-bisphosphate]",Activity,cat T1R1/T1R3 receptor,active
same,Max resp ΔF/F,cat T1R1/T1R3 receptor,1.8925 ΔF/F
same,Max resp. (ΔF/F),cat T1R1/T1R3 receptor,1.8925 ΔF/F
same,Thres,cat T1R1/T1R3 receptor,0.005 mM
same,Threshold,cat T1R1/T1R3 receptor,0.005 mM
same,Max resp % of IMP,cat T1R1/T1R3 receptor,152.3 % of IMP
same,Max. resp. % of IMP,cat T1R1/T1R3 receptor,152.3 % of IMP
same,EC50,cat T1R1/T1R3 receptor; [1],0.02 mM
same,function as activators of T1R1/T1R3,cat T1R1/T1R3 receptor,activators of T1R1/T1R3
Nc1nc2c(ncn2[C@H]2C[C@H](O)[C@@H](COP(O)(O)=S)O2)c(=O)[nH]1 [2′-Deoxyguanosine-5′-O-monophosphorothioate (5′-dGMPS)],Thres,cat T1R1/T1R3 receptor,0.005 mM
"Nc1nc2c(ncn2[C@H]2C[C@H](O)[C@@H](COP(O)(O)=S)O2)c(=O)[nH]1 [2′-Deoxyguanosine-5′-O-monophosphorothioate,sodiumsalt]",Thres,cat T1R1/T1R3 receptor,0.0025 mM
same,Max resp % of IMP,cat T1R1/T1R3 receptor,86.7 % of IMP
O=c1[nH]cnc2c1ncn2C1CC(O)C(COP(O)(O)=S)O1 (stereo not shown) [2′-Deoxyinosine-5′-O-monophosphorothioate],Thres,cat T1R1/T1R3 receptor,0.025 mM
O=c1ccn([C@H]2C[C@H](O)[C@@H](COP(O)(O)=S)O2)c(=O)[nH]1 [2′-Deoxyuridine-5′-O-monophosphosphorothioate (5′-dUMPS)],Activity,cat T1R1/T1R3 receptor,active
same,Max resp ΔF/F,cat T1R1/T1R3 receptor,0.4200 ΔF/F
same,Max resp. (ΔF/F),cat T1R1/T1R3 receptor,0.4200 ΔF/F
same,Thres,cat T1R1/T1R3 receptor,5.000 mM
same,Threshold,cat T1R1/T1R3 receptor,5.000 mM
same,Max resp % of IMP,cat T1R1/T1R3 receptor,43.4 % of IMP
O=c1ccn([C@H]2C[C@H](O)[C@@H](COP(O)(O)=S)O2)c(=O)[nH]1 [2′-Deoxyuridine-5′-O-monophosphosphorothioate],EC50,cat T1R1/T1R3 receptor; EC50 (mM),> 30 mM
same,EC50,cat T1R1/T1R3 receptor; EC50-with Ala (mM),> 30 mM
CC(=O)Nc1ccc(C(=O)Nc2cc(-c3ccccc3)nn2CCO)cc1 [4-acetamido-N-(1-(2-hydroxyethyl)-3-phenyl-1H-pyrazol-5-yl)benzamide],EC50 +Alanine (20 mM),T1R1/T1R3 receptor,CNBD
same,Thres +Alanine (20 mM),T1R1/T1R3 receptor,CNBD
same,EC50 +buffer (alone),T1R1/T1R3 receptor; CNBD = Could not be determined,CNBD
same,Thres +IMP (0.2 mM),T1R1/T1R3 receptor; CNBD = Could not be determined,CNBD
"CCCCc1nn(CC(=O)N2CCCC2)c(=O)n1Cc1ccccc1 [4-benzyl-3-butyl-1-(2-oxo-2-(pyrrolidin-1-yl)ethyl)-1H-1,2,4-triazol-5(4H)-one]",Thres +IMP (0.2 mM),T1R1/T1R3 receptor; CNBD = Could not be determined,0.1 mM
NC(=O)c1ncn(C2OC(COP(=O)(O)O)C(O)C2O)c1N [5-Aminoimidazole-4-carboxamide-1-β-D-ribofuranosyl 5′-monophosphate],Thres,cat T1R1/T1R3 receptor,0.200 mM
O=P(O)(O)OP(=O)(O)OP(=O)(O)OC[C@H]1O[C@@H](n2cnc3c(Cl)ncnc32)[C@H](O)[C@@H]1O [6-Chloropurine riboside-5′-O-triphosphate],Thres +Alanine (20 mM),T1R1/T1R3 receptor,0.01 mM
same,Activity,T1R1/T1R3 receptor; overall call for modulation of T1R1/T1R3: active or N/A (= Not active),active
same,Thres +IMP (0.2 mM),T1R1/T1R3 receptor; CNBD = Could not be determined,0.003 mM
O=P(O)(O)OC[C@H]1O[C@@H](n2cnc3c(Cl)ncnc32)C(O)C1O (stereo partly shown) [6-Chloropurineriboside-5′-O-monophosphate],Thres,cat T1R1/T1R3 receptor,0.0005 mM
Nc1nc2c(ncn2[C@@H]2O[C@H](COP(=O)(O)OP(=O)(O)O)[C@@H](O)[C@H]2O)c(=S)[nH]1 [6-Thioguanosine-5′-O-diphosphate],EC50 +buffer (alone),T1R1/T1R3 receptor; CNBD = Could not be determined,CNBD
same,EC50 +IMP (0.2 mM),T1R1/T1R3 receptor; [2],CNBD
same,Max resp ΔF/F +IMP (0.2 mM),T1R1/T1R3 receptor; [2],0.0720 ΔF/F
same,Thres +IMP (0.2 mM),T1R1/T1R3 receptor; CNBD = Could not be determined,CNBD
O=P(O)(O)OCC1OC(n2cnc3c(Cl)ncnc32)C(O)C1O (stereo not shown) [6-chloropurineriboside-5′-O-monophosphate],function as activators of T1R1/T1R3,cat T1R1/T1R3 receptor,activators of the T1R1/T1R3 receptor
Nc1nc2c(ncn2[C@@H]2O[C@H](COP(=O)(O)O)[C@@H](O)[C@H]2O)c(=S)[nH]1 [6-thioguanosine-5′-O-monophosphate],EC50,cat T1R1/T1R3 receptor; [1],0.0009 mM
same,function as activators of T1R1/T1R3,cat T1R1/T1R3 receptor,activators of T1R1/T1R3
Nc1nc2c(nc(Br)n2[C@@H]2O[C@H](COP(=O)(O)O)[C@@H](O)[C@H]2O)c(=O)[nH]1 [8-Bromoguanosine-5′-O-monophosphate],Thres,cat T1R1/T1R3 receptor,1 mM
Nc1ncnc2c1nc(Cl)n2[C@@H]1O[C@H](COP(=O)(O)O)[C@@H](O)[C@H]1O [8-Chloroadenosine-5′-O-monophosphate],Thres,cat T1R1/T1R3 receptor,0.2 mM
same,EC50,"cat T1R1/T1R3 receptor; EC50 (mM), + Alanine (20 mM), Table 15",0.8 mM
same,Max resp % of IMP,cat T1R1/T1R3 receptor,63.6 % of IMP
same,Max. resp. % of IMP,cat T1R1/T1R3 receptor,63.6 % of IMP
"Nc1ncnc2c1ncn2C1OC(COP(=O)(O)O)C(OP(=O)(O)O)C1O (stereo not shown) [Adenosine 3′,5′-diphosphate sodium salt, adenosine 3′,5′-diphosphate]",Thres,cat T1R1/T1R3 receptor,0.00025 mM
"Nc1ncnc2c1ncn2[C@@H]1O[C@H](COP(=O)(O)O)[C@@H](O)[C@H]1O [Adenosine 5′-monophosphate disodium salt, reference compound]",Thres,cat T1R1/T1R3 receptor,0.003 mM
"Nc1ncnc2c1ncn2C1OC(COP(=O)(O)OS(=O)(=O)O)C(O)C1O (stereo not shown) [Adenosine 5′-phosphosulfate sodium salt, Adenosine 5′-phosphosulfate]",Thres,cat T1R1/T1R3 receptor,0.008 mM
same,EC50,cat T1R1/T1R3 receptor; EC50 (mM),0.03 mM
"Nc1nc2c(ncn2[C@@H]2O[C@H](COP(=O)(O)O)[C@@H](O)[C@H]2O)c(=O)[nH]1 [GMP, guanosine monophosphate, reference compound]",EC50,cat T1R1/T1R3 receptor; [1],0.02 mM
"Nc1nc2c(ncn2[C@@H]2O[C@H](COP(=O)(O)OP(=O)(O)O)[C@@H](O)[C@H]2O)c(=O)[nH]1 [Guanosine 5′-diphosphate sodium salt, Guanosine 5′-diphosphate]",Thres,cat T1R1/T1R3 receptor,0.050 mM
Nc1nc2c(ncn2[C@@H]2O[C@H](COP(=O)(O)OP(=O)(O)OP(=O)(O)O)[C@@H](O)[C@H]2O)c(=O)[nH]1 [Guanosine 5′-triphosphate],Activity,cat T1R1/T1R3 receptor,active
same,Thres,cat T1R1/T1R3 receptor,0.175 mM
Nc1nc2c(ncn2[C@@H]2O[C@H](COP(O)(O)=S)C(O)C2O)c(=O)[nH]1 (stereo partly shown) [Guanosine-5′-monophosphorothioate],Thres,cat T1R1/T1R3 receptor,0.0025 mM
same,function as activators of T1R1/T1R3,cat T1R1/T1R3 receptor,activators of T1R1/T1R3
"CNc1ncnc2c1ncn2[C@H]1C[C@H](OP(=O)(O)O)[C@@H](COP(=O)(O)O)O1 [MRS 2179 ammonium salt hydrate, 2′-Deoxy-N^6-methyl adenosine 3′,5′-diphosphate diammonium salt]",Activity,cat T1R1/T1R3 receptor,active
same,Thres,cat T1R1/T1R3 receptor,0.013 mM
O=P(O)(O)OC[C@H]1O[C@@H](n2cnc3c(NC4CCCC4)ncnc32)[C@H](O)[C@@H]1O [N6-Cyclopentyladenosine-5′-O-monophosphate],Thres,cat T1R1/T1R3 receptor,0.013 mM
CNc1ncnc2c1ncn2[C@@H]1O[C@H](COP(=O)(O)O)[C@@H](O)[C@H]1O [N6-Methyladenosine 5′-monophosphate],Thres,cat T1R1/T1R3 receptor,0.020 mM
CC(=O)Nc1nc2c(ncn2[C@@H]2O[C@H](COP(=O)(O)O)[C@@H](O)[C@H]2O)c(=O)[nH]1 [N-Acetyl-5′-GMP],Thres,cat T1R1/T1R3 receptor,0.025 mM
NC(=O)c1ncn(C2OC(COP(=O)(O)O)C(O)C2O)n1 (stereo not shown) [Ribavirin 5′-Monophosphate],Thres,cat T1R1/T1R3 receptor,0.175 mM
"O=c1ccn([C@@H]2O[C@H](COP(=O)(O)O)[C@@H](O)[C@H]2O)c(=O)[nH]1 [UMP, uridine monophosphate, reference compound]",EC50,cat T1R1/T1R3 receptor; EC50-with Ala (mM),> 30 mM
"Nc1ncnc2c1ncn2[C@@H]1O[C@H](COP(=O)(O)O)[C@@H](O)[C@H]1O [adenosine monophosphate (AMP), adenosine monophosphate, reference compound]",EC50,cat T1R1/T1R3 receptor; EC50-with Ala (mM),0.011 mM
O=c1nc[nH]c2c1ncn2C1O[C@H](COP(=O)(O)OP(=O)(O)OP(=O)(O)O)[C@@H](O)[C@H]1O (stereo partly shown) [inosine triphosphate (ITP) trisodium salt],Max resp ΔF/F,cat T1R1/T1R3 receptor,0.3 ΔF/F
same,Max resp. (ΔF/F),cat T1R1/T1R3 receptor,0.3 ΔF/F
same,Thres,cat T1R1/T1R3 receptor,0.02 mM
same,Threshold,cat T1R1/T1R3 receptor,0.02 mM
"O=c1[nH]c(=O)c2ncn([C@@H]3O[C@H](COP(=O)(O)O)[C@@H](O)[C@H]3O)c2[nH]1 [xanthosine monophosphate, reference compound]",Thres,cat T1R1/T1R3 receptor,0.025 mM
